Drawing on the supplement of paper PMC10307832, this text covers relative viability for one cell line.

Experiment in all cases: relative viability (nuclei count vs DMSO), 5 days (fraction); higher = more cells survive
Compound in the experiment “Bleomycin + Palbociclib”: CC1=C(N=C(N=C1N)[C@H](CC(=O)N)NC[C@@H](C(=O)N)N)C(=O)N[C@@H]([C@H](C2=CN=CN2)OC3C(C(C(C(O3)CO)O)O)OC4C(C(C(C(O4)CO)O)OC(=O)N)O)C(=O)N[C@H](C)[C@H]([C@H](C)C(=O)N[C@@H]([C@@H](C)O)C(=O)NCCC5=NC(=CS5)C6=NC(=CS6)C(=O)NCCC[S+](C)C)O [Bleomycin] + CC(=O)c1c(C)c2cnc(Nc3ccc(N4CCNCC4)cn3)nc2n(C2CCCC2)c1=O [Palbociclib] (partner 0.5 µM)
Particulars: main component drawn. The method, boiled down: (§1)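 Lung cancer cell lines were seeded in 1536-well plates and dosed by pin tool the next day, with either a single drug or a fixed anchor-drug dose combined with five library-drug doses (not always all listed) spaced in √10 steps. Five days later, one step fixed the cells and stained their nuclei (final 0.05% Triton X-100, 1% formaldehyde, 1 ug/ml Hoechst), and nuclei were counted on 4× images. Relative viability is the nuclei count in treated wells divided by the count in vehicle wells, and each value is the median of duplicate plates.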

Compound in the experiment “Etoposide + Vorinostat”: COc1cc([C@@H]2c3cc4c(cc3[C@@H](O[C@@H]3O[C@@H]5CO[C@@H](C)O[C@H]5[C@H](O)[C@H]3O)[C@H]3COC(=O)[C@H]23)OCO4)cc(OC)c1O [Etoposide] + O=C(CCCCCCC(=O)Nc1ccccc1)NO [Vorinostat] (partner 1 µM)
The essentials: as §1

Compound in the experiment “Etoposide + Navitoclax”: COc1cc([C@@H]2c3cc4c(cc3[C@@H](O[C@@H]3O[C@@H]5CO[C@@H](C)O[C@H]5[C@H](O)[C@H]3O)[C@H]3COC(=O)[C@H]23)OCO4)cc(OC)c1O [Etoposide] + CC1(C)CCC(c2ccc(Cl)cc2)=C(CN2CCN(c3ccc(C(=O)NS(=O)(=O)c4ccc(N[C@H](CCN5CCOCC5)CSc5ccccc5)c(S(=O)(=O)C(F)(F)F)c4)cc3)CC2)C1 [Navitoclax] (partner 0.5 µM)
The essentials: as §1

Compound in the experiment “Etoposide + Phenformin”: COc1cc([C@@H]2c3cc4c(cc3[C@@H](O[C@@H]3O[C@@H]5CO[C@@H](C)O[C@H]5[C@H](O)[C@H]3O)[C@H]3COC(=O)[C@H]23)OCO4)cc(OC)c1O [Etoposide] + N=C(N)NC(=N)NCCc1ccccc1 [Phenformin] (partner 250 µM)
The method, boiled down:
as §1

In the case of UMC-11, the relative viability in the experiment with Bleomycin + Palbociclib (first compound 0.01 µM) was determined as 0.311; with Bleomycin + Palbociclib (first compound 0.03162 µM), 0.334; in the experiment with Bleomycin + Palbociclib (first compound 0.1 µM) it was 0.355; in the experiment with Bleomycin + Palbociclib (first compound 0.3162 µM), 0.313; in the experiment with Bleomycin + Palbociclib (first compound 1 µM), 0.263; with Etoposide + Vorinostat (first compound 0.01 µM) it was 0.373. In addition, the relative viability with Etoposide + Vorinostat (first compound 0.03162 µM) was 0.376; with Etoposide + Vorinostat (first compound 0.1 µM) it was 0.323; in the experiment with Etoposide + Vorinostat (first compound 0.3162 µM) it was 0.228; with Etoposide + Vorinostat (first compound 1 µM), 0.199; with Etoposide + Navitoclax (first compound 0.01 µM) it was 0.344; with Etoposide + Navitoclax (first compound 0.03162 µM), 0.307. The relative viability with Etoposide + Navitoclax (first compound 0.3162 µM) is 0.193; with Etoposide + Navitoclax (first compound 1 µM) it was 0.155; in the experiment with Etoposide + Phenformin (first compound 0.01 µM), 0.333; in the experiment with Etoposide + Phenformin (first compound 0.03162 µM) it was 0.341; in the experiment with Etoposide + Phenformin (first compound 0.1 µM), 0.275; in the experiment with Etoposide + Phenformin (first compound 0.3162 µM) it was 0.233. In addition, the relative viability with Etoposide + Phenformin (first compound 1 µM) is 0.207.
